Where a SMILES comes first, the peptide text is derived from it.

Data set [1] has as its target T1, human calcitonin receptor (hCT(a)) (Homo sapiens, UniProt P30988).
T1 construct: expressed in transfected cells; host or cells: Cos-7 cells, transient transfection with PEI, pcDNA3.1 vectors
T1 sequence (P30988 25-474): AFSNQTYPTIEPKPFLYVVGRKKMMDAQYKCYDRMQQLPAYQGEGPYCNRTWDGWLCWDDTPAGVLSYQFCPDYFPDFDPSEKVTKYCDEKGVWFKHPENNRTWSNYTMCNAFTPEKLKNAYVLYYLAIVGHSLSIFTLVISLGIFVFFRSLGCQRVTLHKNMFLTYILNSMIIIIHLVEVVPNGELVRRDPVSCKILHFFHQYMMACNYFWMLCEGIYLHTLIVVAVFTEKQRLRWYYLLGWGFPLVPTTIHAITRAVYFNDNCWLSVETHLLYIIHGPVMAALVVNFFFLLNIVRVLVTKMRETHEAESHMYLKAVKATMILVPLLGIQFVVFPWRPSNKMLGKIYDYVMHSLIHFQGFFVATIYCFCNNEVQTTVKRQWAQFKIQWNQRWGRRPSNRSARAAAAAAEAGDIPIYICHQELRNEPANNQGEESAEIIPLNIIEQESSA
The data set is described as follows: cAMP production (LANCE cAMP assay) in transfected Cos-7 cells. The following applies: Cos-7 cells expressing hCT(a); for EC50: cAMP production, mean ± spread, read-out: Human calcitonin receptor binding data pEC50 (converted). The class given is cell-based. As to the method:
(§1) Cell Culture and Transfection. Cos-7 cells were cultured and transfected for receptor activity assays as previously described in Bailey, R. J., and Hay, D. L. Peptides (2006) 27, pp. 1367-1375, the entire contents of which is incorporated herein by reference. Specifically, cells were cultured in Dulbucco's modified eagle medium (DMEM) with 8% heat-inactivated fetal bovine serum (FBS) and kept in a 37° C. humidified 95% air/5% CO2 incubator. Cells were plated at a density of 18,000-20,000 cells/well (depending on cell passage) in 96-well culture plate and returned to the incubator for approximately 18-24 hours. Transient transfections were carried out using polyethyleneimine (PEI) as described previously and maintained at 37° C. in a humidified 95% air/5% CO2 incubator for 36-48 hours. All DNA constructs used in this these were in pcDNA3.1 vectors.
(§2) cAMP Assay: Measurement of intracellular cAMP was achieved using a time-resolved fluorescent resonance energy transfer assay (LANCE cAMP assay, PerkinElmer), similar to the previously described Alphascreen assay as described in Gingell, J. J., et al. Peptides (2010) 31, pp. 1400-1404, with the following changes. Following stimulation with peptide agonist, cAMP assay media from the wells was thoroughly aspirated and 50 μl of ice-cold absolute ethanol added to each well. Plates were then placed in a −30° C. freezer for 10 minutes or overnight prior to assay, then removed and allowed to air dry in a fume hood for 1-2 hours. After ethanol evaporated from the plates, 50 μl of LANCE detection buffer (lysis buffer, 0.35% Triton X-100, 50 mM HEPES and 10 mM calcium chloride in ddH2O, pH 7.4) was added per well and left on a plate shaker for 10-15 minutes at room temperature. Meanwhile, a cAMP standard curve was generated using LANCE detection buffer and a serially diluted cAMP standard (50 μM) ranging from 1 μM to 10 pM. The serially diluted cAMP standards (5 μl) and cell lysates (5 μl) were transferred into 384-well opti-plates and sealed with a Sealplate®-A-384-well microplate adhesive film and briefly centrifuged (10 seconds, 500 rpm, 23° C.). A 1:200 dilution of LANCE assay Alexa Fluor® 647 anti-cAMP antibody was prepared in detection buffer and 5 μl added to each well. Plates were sealed and briefly centrifuged again (10 seconds, 500 rpm, 23° C.) and left to incubate, sealed for 30 minutes at room temperature. During this incubation, detection mix was made up consisting of detection buffer, Europium-W8044 labelled streptavidin (1:4500) and biotin-cAMP (1:1500). After 30 minutes incubation, 10 μl of detection mix was added to each well, plates were centrifuged (30 seconds, 500 rpm, 23° C.), sealed and left to incubate for 1 hour at room temperature. Plates were read after an overnight incubation on an Envision plate reader. A standard curve was included in each experiment to ensure accurate quantification of cAMP.
(§3) Data Analysis for Receptor Assays: Data were derived from independent experiments for statistical analysis and all experiments were performed and replicated. Quantification of cAMP was obtained from a standard curve included in each experiment and plotted using the software GraphPad Prism 6.0 (GraphPad Software Inc, San Diego, Calif., USA) with a non-linear regression 3-parameter logistic equation with a Hill Slope of 1 to determine the pEC50. The pEC50 values from the fits were combined from different experimental days and statistically tested for difference from the WT peptide using the Student's t-test with statistical significance defined as * p<0.05, ** p<0.01, *** p<0.001. Due to variability in amount of cAMP produced between experimental days, data were normalized to the control peptide for each experiment to obtain Emax values. For each analogue, data were normalized to the maximum (Emax) and minimum (Emin) responses of h-amylin. […]

Data set [2] has as its target T2, human amylin receptor (hAMY1(a)) (Homo sapiens, UniProt O60894+P30988).
T2 construct: expressed in transfected cells; host or cells: Cos-7 cells, transient transfection with PEI, pcDNA3.1 vectors
The data set is described as above. The class given is cell-based. The following applies: Cos-7 cells expressing hAMY1(a); for EC50: cAMP production, mean ± spread, read-out: Human Amylin1(a) receptor binding data pEC50 (converted). As to the method:
as §1, §2, §3

Data set [3] in a line: Thioflavin-T fluorescence assay of amyloid formation kinetics. The class given is physicochemical. The note with it: 16 μM peptide, 10 mM PBS pH 7.4, 25° C., no stirring; 1 week and 6 week incubations. As to the method:
Sample Preparation. Each peptide was dissolved into 100% hexafluoroisoproponal (HFIP) to make a 0.5 mM stock solution. Stock solutions were filtered using […] Acrodisc syringe filter with a GHP membrane and the required amount of peptide was lyophilized overnight to remove HFIP. Dry peptide was dissolved into the appropriate buffer for the fluorescence assays. Fluorescence Assays. Thioflavin-T binding assays, conducted without HFIP or stirring at 25° C., were utilized to monitor amyloid formation kinetics. Fluorescence measurements were performed using a Spectramax Gemini EM plate reader. Corning 96-well non-binding surface black plates with lids were used and were sealed with polyethylene sealing tape. Samples were prepared by dissolving dry peptide into 10 mM PBS buffer (pH 7.4) and 32 μM thioflavin-T solution immediately before the measurement. Thioflavin-T fluorescence was measured with 450 nm excitation and emission at 485 nm was monitored. The final concentrations were 16 μM peptides. After creating the mutant-hIAPP polypeptides of the present disclosure, applicants tested the propensity of the different analogs to form amyloid at pH 7.4 using thioflavin-T fluorescence assays (FIGS. 2A-D) and TEM (FIGS. 3A-E). […] Amyloid formation follows a sigmoidal time course consisting of a lag phase in which few, if any, fibrils are formed, followed by a growth phase and a saturation phase in which amyloid fibrils are in equilibrium with soluble peptide.

For data set [4] the following is noted: pH 7.
Experimental: 100 μL each solution was obtained immediately following dissolution with Novolin-N® and was centrifuged using a Beckman Coulter Microfuge (22R Centrifuge) at 24° C. for 20 minutes. The relative centrifugal force used was 1.75×104 g. Aliquots of each sample were immediately frozen and lyophilized. The remaining portion of each sample was not centrifuged and were incubated at 25° C. without stirring. Samples were collected again following the same procedures after 1 day, 7 days and 30 days. Dry samples were redissolved in 4:1 HPLC buffer mix (4A:1B, below) and immediately injected for liquid chromatography-mass spectroscopy (LC-MS) measurements. The HPLC buffers were (A) H2O (0.1% acetic acid and 0.02% TFA) and (B) CH3CN (0.1% acetic acid and 0.02% TFA). Solubility of each co-formulated sample was determined by measuring the absorbance from the liquid chromatogram traces at 215±8 nm and at 277±8 nm at each time point tested. points (0 hours, 24 hours, 7 days and 30 days post-formulation).
The conditions of data set [5]: pH 7.4.
Experimental: Dry peptides were dissolved into 10 mM PBS buffer at pH 7.4 at different initial concentrations, and were incubated for 7 days at 25° C. without stirring. Each sample was then centrifuged using a Beckman Coulter Microfuge 22R Centrifuge at 24° C. for 20 min. The relative centrifugal force used was 1.75×10^4 g. Solubility of each sample was approximated by measuring the absorbance of the corresponding supernatant at 280 nm measured using a Beckman Coulter DU 730 UV/Vis Spectrophotometer.
Each peptide tested was incubated in 10 mM PBS buffer at pH 7.4 for 7 days at three different concentrations (100 μM, 500 μM and 1 mM) and the solution was then centrifuged. The apparent solubility was represented by the absorbance of the supernatant of each sample measured at 280 nm. The extinction coefficients of all polypeptides are very similar at 280 nm since they all contain the same aromatic residues and each contains a disulfide bond. […] A peptide which is soluble at 1 mM and above will show a linear dependence of absorbance on initial concentration. A peptide which is less soluble will deviate from linearity. The peptides were centrifuged after 7 days and their apparent solubility measured by measuring the absorbance at 280 nm of the supernatant of each solution. The apparent concentration refers to the concentration which would be obtained if all of the peptide dissolved. The absorbance of the supernatant is directly proportion to the amount of peptide in solution.
A short description of data set [6]: Transmission electron microscopy (TEM) of amyloid aggregates. The following applies: after 7 days of incubation, end of kinetic experiment. The class given is physicochemical. As to the method:
Transmission Electron Microscopy (TEM). TEM images were recorded using an FEI Bio TwinG^2 Transmission Electron Microscope at the central microscopy center at Stony Brook University. 15 μL aliquots of the samples used for fluorescence assays were removed at the end of each kinetic experiment, blotted on a carbon formvar-coated 300-mesh copper grid for 1 min and then negatively stained with saturated uranyl acetate for 1 min. Images were taken at a 68,000× magnification and 100 nm under focus. Mutant-hIAPP polypeptides of the present disclosure were further analyzed using TEM. […] In contrast, no amyloid fibrils were formed after a 1 week (FIGS. 3B-E, left) or 6 week (FIGS. 3B-E, right) culture with the any of the mutant-hIAPP analogs tested.

T2 sequence (O60894 27-148 partner, one chain of several): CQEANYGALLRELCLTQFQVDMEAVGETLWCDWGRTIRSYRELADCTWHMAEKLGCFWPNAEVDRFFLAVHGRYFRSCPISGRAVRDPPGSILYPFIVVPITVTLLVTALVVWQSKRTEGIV

With `CC[C@H](C)[C@H](NC(=O)[C@H](C)NC(=O)CNC(=O)[C@H](Cc1ccccc1)NC(=O)[C@H](CCCCN)NC(=O)[C@H](CC(N)=O)NC(=O)[C@H](CO)NC(=O)[C@H](CO)NC(=O)[C@H](Cc1c[nH]cn1)NC(=O)[C@@H](NC(=O)[C@H](CC(C)C)NC(=O)[C@H](Cc1ccccc1)NC(=O)[C@H](CC(N)=O)NC(=O)[C@H](C)NC(=O)[C@H](CC(C)C)NC(=O)[C@H](CCCNC(=N)N)NC(=O)[C@H](CCC(N)=O)NC(=O)[C@@H](NC(=O)[C@H](C)NC(=O)[C@@H]1CSSC[C@H](NC(=O)[C@@H](N)CCCCN)C(=O)N[C@@H](CC(N)=O)C(=O)N[C@@H]([C@@H](C)O)C(=O)N[C@@H](C)C(=O)N[C@@H]([C@@H](C)O)C(=O)N1)[C@@H](C)O)C(C)C)C(=O)N[C@@H](CC(C)C)C(=O)N1CCC[C@H]1C(=O)N[C@@H](CO)C(=O)N[C@H](C(=O)N[C@@H](CCCCN)C(=O)N[C@H](C(=O)NCC(=O)N[C@@H](CO)C(=O)N[C@@H](CC(N)=O)C(=O)N[C@H](C(=O)N[C@@H](Cc1ccc(O)cc1)C(N)=O)[C@@H](C)O)C(C)C)[C@@H](C)O` [SEQ ID NO: 22] (HELM PEPTIDE1{K.C.N.T.A.T.C.A.T.Q.R.L.A.N.F.L.V.H.S.S.N.K.F.G.A.I.L.P.S.T.K.V.G.S.N.T.Y.[am]}$PEPTIDE1,PEPTIDE1,2:R3-7:R3$$$V2.0), in data set [1], the “concentration-response of cAMP production compared with wild-type hIAPP” value is “do not significantly alter amylin or calcitonin receptor activity” and the EC50 was 2.82 nM. In data set [2], the “concentration-response of cAMP production compared with wild-type hIAPP” value is given as “do not significantly alter amylin or calcitonin receptor activity” and the EC50 is 0.372 nM. Also, the “amyloid formation monitored by thioflavin-T fluorescence” value in data set [3] is listed as “none of the mutant hIAPP polypeptides forms amyloid”. In addition, the “solubility co-formulated with Novolin-N (absorbance at 215 nm and 277 nm, LC-MS)” value in data set [4] is “significantly higher absorbance when compared to both wild-type hIAPP and paramlintide”. In data set [5], the “solubility at neutral pH (absorbance of supernatant at 280 nm)” value is given as “more substantially soluble than wild-type hIAPP”. Besides, in data set [6], the “amyloid aggregates in TEM images” value is recorded as “no aggregates are observed”.
With `CC(C)C[C@H](NC(=O)[C@H](CCCNC(=N)N)NC(=O)[C@H](CCC(N)=O)NC(=O)[C@@H](NC(=O)[C@H](C)NC(=O)[C@@H]1CSSC[C@H](NC(=O)[C@@H](N)CCCCN)C(=O)N[C@@H](CC(N)=O)C(=O)N[C@@H]([C@@H](C)O)C(=O)N[C@@H](C)C(=O)N[C@@H]([C@@H](C)O)C(=O)N1)[C@@H](C)O)C(=O)N[C@@H](C)C(=O)N[C@@H](CC(N)=O)C(=O)N[C@@H](Cc1ccccc1)C(=O)N[C@@H](CC(C)C)C(=O)N[C@H](C(=O)N[C@@H](Cc1c[nH]cn1)C(=O)N[C@@H](CO)C(=O)N[C@@H](CO)C(=O)N[C@@H](CC(N)=O)C(=O)N[C@@H](CCCCN)C(=O)N[C@@H](Cc1ccccc1)C(=O)N1CCC[C@H]1C(=O)N[C@@H](C)C(=O)N1CCC[C@H]1C(=O)N[C@@H](CC(C)C)C(=O)N[C@@H](CO)C(=O)N[C@@H](CO)C(=O)N[C@H](C(=O)N[C@@H](CCCCN)C(=O)N[C@H](C(=O)NCC(=O)N[C@@H](CO)C(=O)N[C@@H](CC(N)=O)C(=O)N[C@H](C(=O)N[C@@H](Cc1ccc(O)cc1)C(N)=O)[C@@H](C)O)C(C)C)[C@@H](C)O)C(C)C` [SEQ ID NO: 10] (HELM PEPTIDE1{K.C.N.T.A.T.C.A.T.Q.R.L.A.N.F.L.V.H.S.S.N.K.F.P.A.P.L.S.S.T.K.V.G.S.N.T.Y.[am]}$PEPTIDE1,PEPTIDE1,2:R3-7:R3$$$V2.0), in data set [1], the “concentration-response of cAMP production compared with wild-type hIAPP” value is on record as “do not significantly alter amylin or calcitonin receptor activity” and the EC50 is 5.01 nM. Further, in data set [2], the “concentration-response of cAMP production compared with wild-type hIAPP” value is “do not significantly alter amylin or calcitonin receptor activity” and the EC50 is 3.39 nM. For the same molecule, the “amyloid formation monitored by thioflavin-T fluorescence” value in data set [3] was “none of the mutant hIAPP polypeptides forms amyloid”. Besides, the “solubility co-formulated with Novolin-N (absorbance at 215 nm and 277 nm, LC-MS)” value in data set [4] is “significantly higher absorbance when compared to both wild-type hIAPP and paramlintide”. Further, the “solubility at neutral pH (absorbance of supernatant at 280 nm)” value in data set [5] is reported as “more substantially soluble than wild-type hIAPP”. Moreover, the “amyloid aggregates in TEM images” value in data set [6] is “no aggregates are observed”.

The record behind these values is US11028137B2, “Mutant islet amyloid polypeptides with improved solubility and methods for using the same” (priority 2017, dated 2021).
